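Where inhibition never reached the appropriate level, the endpoint shown equals the highest concentration tested. Otherwise, values were interpolated linearly from a five-concentration, 48-hour dose response in 96-well plates. GI50 marks 50% less growth. TGI marks complete inhibition of growth.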
Legend:
Assay in all cases: NCI anticancer screen, dose series, 48 h
HCC-2998 colon = system: HCC-2998 colon
SK-OV-3 ovarian = system: SK-OV-3 ovarian
PC-3 prostate = system: PC-3 prostate
NCI-H522 lung = system: NCI-H522 lung
U251 CNS = system: U251 CNS
RXF 393 renal = system: RXF 393 renal
MDA-MB-231 breast = system: MDA-MB-231 breast
MALME-3M melanoma = system: MALME-3M melanoma
SK-MEL-28 melanoma = system: SK-MEL-28 melanoma
LOX IMVI melanoma = system: LOX IMVI melanoma
SF-539 CNS = system: SF-539 CNS
NCI-H226 lung = system: NCI-H226 lung
M14 melanoma = system: M14 melanoma
HOP-92 NSCLC = system: HOP-92 NSCLC
BT-549 breast = system: BT-549 breast
UACC-257 melanoma = system: UACC-257 melanoma
HCT-15 colon = system: HCT-15 colon
COLO 205 colon = system: COLO 205 colon
OVCAR-8 ovarian = system: OVCAR-8 ovarian
SF-268 CNS = system: SF-268 CNS
A549 NSCLC = system: A549 NSCLC
SNB-75 CNS = system: SNB-75 CNS
RPMI-8226 leukemia = system: RPMI-8226 leukemia
MOLT-4 leukemia = system: MOLT-4 leukemia
KM12 colon = system: KM12 colon
IGROV1 ovarian = system: IGROV1 ovarian
NCI-H23 lung = system: NCI-H23 lung
OVCAR-3 ovarian = system: OVCAR-3 ovarian

Compound: Fc1cccc(Cl)c1Cn1c(-c2c(F)cccc2Cl)nc2ccccc21
- GI50 (HCC-2998 colon): 2.31 µM
- TGI (HCC-2998 colon): 9.87 µM
- GI50 (SK-OV-3 ovarian): 18.4 µM
- TGI (SK-OV-3 ovarian): 44.6 µM
- GI50 (PC-3 prostate): 14.7 µM
- TGI (PC-3 prostate): 55.3 µM
- GI50 (NCI-H522 lung): 13.3 µM
- TGI (NCI-H522 lung): 44.5 µM
- GI50 (U251 CNS): 19.9 µM
- TGI (U251 CNS): 47.1 µM
- GI50 (RXF 393 renal): 19.7 µM
- TGI (RXF 393 renal): 43.6 µM
- GI50 (MDA-MB-231 breast): 13.2 µM
- TGI (MDA-MB-231 breast): 29.3 µM
- GI50 (MALME-3M melanoma): 8.29 µM
- TGI (MALME-3M melanoma): 24.7 µM
- GI50 (SK-MEL-28 melanoma): 20.4 µM
- TGI (SK-MEL-28 melanoma): 46.2 µM
- GI50 (LOX IMVI melanoma): 20.5 µM
- TGI (LOX IMVI melanoma): 42.2 µM
- GI50 (SF-539 CNS): 23.1 µM
- TGI (SF-539 CNS): 46.2 µM
- GI50 (NCI-H226 lung): 22 µM
- TGI (NCI-H226 lung): 57.8 µM
- GI50 (M14 melanoma): 19.4 µM
- TGI (M14 melanoma): 53.9 µM
- GI50 (HOP-92 NSCLC): 13.9 µM
- TGI (HOP-92 NSCLC): 38.5 µM
- GI50 (BT-549 breast): 25.4 µM
- TGI (BT-549 breast): 53.2 µM
- GI50 (UACC-257 melanoma): 12.9 µM
- TGI (UACC-257 melanoma): 28.6 µM
- GI50 (HCT-15 colon): 16.4 µM
- TGI (HCT-15 colon): 42.9 µM
- GI50 (COLO 205 colon): 17.5 µM
- TGI (COLO 205 colon): > 100 µM
- GI50 (OVCAR-8 ovarian): 17.3 µM
- TGI (OVCAR-8 ovarian): 37.8 µM
- GI50 (SF-268 CNS): 15 µM
- TGI (SF-268 CNS): 32.6 µM
- GI50 (A549 NSCLC): 11.6 µM
- TGI (A549 NSCLC): 33.7 µM
- GI50 (SNB-75 CNS): 22.1 µM
- TGI (SNB-75 CNS): 69.3 µM
- GI50 (RPMI-8226 leukemia): 13.3 µM
- TGI (RPMI-8226 leukemia): 60 µM
- GI50 (MOLT-4 leukemia): 11.1 µM
- TGI (MOLT-4 leukemia): > 100 µM
- GI50 (KM12 colon): 14.6 µM
- TGI (KM12 colon): 42.4 µM
- GI50 (IGROV1 ovarian): 21.9 µM
- TGI (IGROV1 ovarian): > 100 µM
- GI50 (NCI-H23 lung): 31.2 µM
- TGI (NCI-H23 lung): > 100 µM
- GI50 (OVCAR-3 ovarian): 17.4 µM
- TGI (OVCAR-3 ovarian): 60.2 µM
